One may read the IC50 as the concentration needed to halve the response being measured. High values mean a need for much substance, low ones inhibition by little substance.

Molecules are shown by their SMILES.

Our source for the IC50 values is patent US20260374756A1, “HETEROCYCLIC COMPOUNDS AS INHIBITORS OF MONOACYLGLYCEROL LIPASE (MAGL)” (Hoffmann-La Roche Inc., priority 2022, published 2026).

The assay concerns the target T1, hMAGL (Homo sapiens, UniProt Q99685).
T1 sequence (Q99685 1-303): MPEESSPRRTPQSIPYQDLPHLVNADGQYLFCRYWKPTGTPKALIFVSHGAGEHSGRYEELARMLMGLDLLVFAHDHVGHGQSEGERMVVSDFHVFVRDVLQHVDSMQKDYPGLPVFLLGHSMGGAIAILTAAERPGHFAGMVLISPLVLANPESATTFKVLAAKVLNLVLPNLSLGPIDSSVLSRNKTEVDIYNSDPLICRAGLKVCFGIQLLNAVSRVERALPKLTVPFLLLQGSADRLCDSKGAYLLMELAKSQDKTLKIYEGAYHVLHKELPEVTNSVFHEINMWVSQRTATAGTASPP
Briefly: 2-AG assay: MAGL inhibition, hydrolysis of 2-arachidonoylglycerol to arachidonic acid followed by mass spectrometry. The class given is biochemical. As for the experimental part: Compounds of formula (I) were profiled for MAGL inhibitory activity by determining the enzymatic activity by following the hydrolysis of the natural substrate 2-arachidonoylglycerol (2-AG) resulting in arachidonic acid, which can be followed by mass spectrometry. This assay is hereinafter abbreviated “2-AG assay”. The 2-AG assay was carried out in 384 well polypropylene assay plates. […] Compound dilutions were added to MAGL protein in assay buffer (50 mM TRIS, 1 mM EDTA, 0.01% (v/v) Tween-20, 2.5% (v/v) DMSO). After shaking, the plate was incubated for 15 min at RT. To start the reaction, 2-arachidonoylglycerol in assay buffer was added. The final concentrations in the assay was […] for MAGL protein and 8 μM 2-arachidonoylglyerol. After shaking and 30 min incubation at RT, the reaction was quenched by the addition of two assay volumes of acetonitrile containing 4 μM of d8-arachidonic acid. The amount of arachidonic acid formed was traced by an online SPE system (Agilent Rapidfire) coupled to a triple quadrupole mass spectrometer. A C18 SPE cartridge (Agilent G9205A) was used in an acetonitrile/water liquid setup. […] The activity of the compounds was calculated based on the ratio of intensities [arachidonic acid/d8-arachidonic acid].
`O=C(N1CC2(CC(n3cnc(C4CC4)n3)C2)C1)N1CC2(CN(Cc3cnc(C(F)F)s3)C2)C1` [Example 279, [6-(3-cyclopropyl-1,2,4-triazol-1-yl)-2-azaspiro[3.3]heptan-2-yl]-[6-[[2-(difluoromethyl)thiazol-5-yl]methyl]-2,6-diazaspiro[3.3]heptan-2-yl]methanone] returned an IC50 of 9.22 nM. In turn, `O=C(N1CC2(CC(c3cc(C4CC4)n[nH]3)C2)C1)N1CC2(CN(Cc3nc(C4CC4)ns3)C2)C1` [Example 42, [6-(3-cyclopropyl-1H-pyrazol-5-yl)-2-azaspiro[3.3]heptan-2-yl]-[6-[(3-cyclopropyl-1,2,4-thiadiazol-5-yl)methyl]-2,6-diazaspiro[3.3]heptan-2-yl]methanone] returned an IC50 of 3.85 nM. `O=C(N1CC2(CC(Cc3nc(C(F)(F)F)ns3)C2)C1)N1CC2(CC(n3cnc(C4CC4)n3)C2)C1` [Example 16] displayed a half-maximal inhibitory concentration (IC50) of 0.18 nM.

For the molecule `CC(C)(C)n1nccc1CN1CC2(C1)CN(C(=O)N1CC3(CC(n4cnc(C5CC5)n4)C3)C1)C2` [Example 276, [6-[(2-tert-butylpyrazol-3-yl)methyl]-2,6-diazaspiro[3.3]heptan-2-yl]-[6-(3-cyclopropyl-1,2,4-triazol-1-yl)-2-azaspiro[3.3]heptan-2-yl]methanone], the IC50 was 13.6 nM.

In turn, `O=C(N1CC2(CCN(Cc3ncc(C(F)F)s3)CC2)C1)N1CC2(CC(n3cnc(C4CC4)n3)C2)C1` [Example 32] had an IC50 of 2.86 nM.

Molecule `O=C(N1CC2(CC(n3cnc(C4CC4)n3)C2)C1)N1CC2(CN(Cc3cc(C(F)(F)F)no3)C2)C1` [Example 184, [6-(3-cyclopropyl-1,2,4-triazol-1-yl)-2-azaspiro[3.3]heptan-2-yl]-[6-[[3-(trifluoromethyl)isoxazol-5-yl]methyl]-2,6-diazaspiro[3.3]heptan-2-yl]methanone] returned an IC50 of 6.68 nM.

Turning to `O=C(N1CC2(CC(Cc3nc(CC(F)(F)F)n[nH]3)C2)C1)N1CC2(CC(n3cnc(C(F)F)n3)C2)C1` [Example 316, [6-[3-(difluoromethyl)-1,2,4-triazol-1-yl]-2-azaspiro[3.3]heptan-2-yl]-[6-[[3-(2,2,2-trifluoroethyl)-1H-1,2,4-triazol-5-yl]methyl]-2-azaspiro[3.3]heptan-2-yl]methanone], the IC50 was found to be 69.4 nM. In turn, `CC(C)(C)c1csc(CN2CC3(C2)CN(C(=O)N2CC4(CC(n5cnc(C6(O)CC6)n5)C4)C2)C3)n1` [Example 199, [6-[(4-tert-butylthiazol-2-yl)methyl]-2,6-diazaspiro[3.3]heptan-2-yl]-[6-[3-(1-hydroxycyclopropyl)-1,2,4-triazol-1-yl]-2-azaspiro[3.3]heptan-2-yl]methanone] gave a half-maximal inhibitory concentration (IC50) of 6.7 nM. `O=C(N1CC2(CC(n3cnc(C4(O)CC4)n3)C2)C1)N1CC2(CN(Cc3snnc3C3CCC3)C2)C1` [Example 78, [6-[(4-cyclobutylthiadiazol-5-yl)methyl]-2,6-diazaspiro[3.3]heptan-2-yl]-[6-[3-(1-hydroxycyclopropyl)-1,2,4-triazol-1-yl]-2-azaspiro[3.3]heptan-2-yl]methanone] gave an IC50 of 22.9 nM. Turning to `O=C(N1CC2(CC(n3cnc(C(F)(F)F)n3)C2)C1)N1CC2(CN(Cc3snnc3C3CCC3)C2)C1` [Example 76, [6-[(4-cyclobutylthiadiazol-5-yl)methyl]-2,6-diazaspiro[3.3]heptan-2-yl]-[6-[3-(trifluoromethyl)-1,2,4-triazol-1-yl]-2-azaspiro[3.3]heptan-2-yl]methanone], the IC50 was found to be 5.73 nM. Under `Cc1nc(C(F)(F)F)c(CN2CC3(C2)CN(C(=O)N2CC4(CC(n5cnc(C6CC6)n5)C4)C2)C3)s1` [Example 86, [6-(3-cyclopropyl-1,2,4-triazol-1-yl)-2-azaspiro[3.3]heptan-2-yl]-[6-[[2-methyl-4-(trifluoromethyl)thiazol-5-yl]methyl]-2,6-diazaspiro[3.3]heptan-2-yl]methanone] stands 2.65 nM; under `Cn1c(CN2CC3(C2)CN(C(=O)N2CC4(CC(n5cnc(C(F)(F)F)n5)C4)C2)C3)nnc1C(F)(F)F` [Example 314, [6-[[4-methyl-5-(trifluoromethyl)-1,2,4-triazol-3-yl]methyl]-2,6-diazaspiro[3.3]heptan-2-yl]-[6-[3-(trifluoromethyl)-1,2,4-triazol-1-yl]-2-azaspiro[3.3]heptan-2-yl]methanone], 123 nM. In the case of `O=C(N1CC2(CC(Cn3ccnc3C(F)(F)F)C2)C1)N1CC2(CC(n3cnc(C4(O)CC4)n3)C2)C1` [Example 146], half-maximal inhibition (IC50) was put at 14.8 nM.

`O=C(N1CC2(CC(Oc3cnn(CC(F)(F)F)c3)C2)C1)N1CC2(CC(n3cnc(C4CC4)n3)C2)C1` [Example 249, [6-(3-cyclopropyl-1,2,4-triazol-1-yl)-2-azaspiro[3.3]heptan-2-yl]-[6-[1-(2,2,2-trifluoroethyl)pyrazol-4-yl]oxy-2-azaspiro[3.3]heptan-2-yl]methanone]: the midpoint of inhibition, the IC50, lay at 10.8 nM. Take `O=C(N1CC2(CC(Cc3cn(C4CC4)nc3C(F)(F)F)C2)C1)N1CC2(CC(n3cnc(C4(O)CC4)n3)C2)C1` [Example 63, [6-[[1-cyclopropyl-3-(trifluoromethyl)pyrazol-4-yl]methyl]-2-azaspiro[3.3]heptan-2-yl]-[6-[3-(1-hydroxycyclopropyl)-1,2,4-triazol-1-yl]-2-azaspiro[3.3]heptan-2-yl]methanone]: 18.3 nM corresponded to half-maximal inhibition (IC50). `O=C(N1CC2(CC(n3cnc(C(F)(F)F)n3)C2)C1)N1CC2(CN(Cc3nc(C4CC4)ns3)C2)C1` [Example 43, [6-[(3-cyclopropyl-1,2,4-thiadiazol-5-yl)methyl]-2,6-diazaspiro[3.3]heptan-2-yl]-[6-[3-(trifluoromethyl)-1,2,4-triazol-1-yl]-2-azaspiro[3.3]heptan-2-yl]methanone] registered an IC50 of 23.1 nM. In the case of `O=C(N1CC2(CC(Cc3noc(C(F)(F)F)n3)C2)C1)N1CC2(CC(n3cnc(C4(O)CC4)n3)C2)C1` [Example 105], inhibition was half-maximal at 14.1 nM (IC50). Then `Cc1cc(C(F)F)n(CC2CC3(C2)CN(C(=O)N2CC4(CC(n5cnc(C6(O)CC6)n5)C4)C2)C3)n1` [Example 93, [6-[[5-(difluoromethyl)-3-methyl-pyrazol-1-yl]methyl]-2-azaspiro[3.3]heptan-2-yl]-[6-[3-(1-hydroxycyclopropyl)-1,2,4-triazol-1-yl]-2-azaspiro[3.3]heptan-2-yl]methanone], with 5.48 nM.

Consider `O=C(N1CC2(CC(n3cnc(C(F)(F)F)n3)C2)C1)N1CC2(CN(Cc3nc(CC(F)(F)F)no3)C2)C1` [Example 206], for which the 50% inhibitory concentration (IC50) came out at 149 nM. Turning to `Cn1nc(C(F)(F)F)cc1CC1CC2(C1)CN(C(=O)N1CC3(CC(n4cnc(C5(O)CC5)n4)C3)C1)C2` [Example 288, [6-[3-(1-hydroxycyclopropyl)-1,2,4-triazol-1-yl]-2-azaspiro[3.3]heptan-2-yl]-[6-[[2-methyl-5-(trifluoromethyl)pyrazol-3-yl]methyl]-2-azaspiro[3.3]heptan-2-yl]methanone], half-maximal inhibition (IC50) was put at 2.43 nM. As to `Cn1ncc(C(F)(F)F)c1CN1CC2(C1)CN(C(=O)N1CC3(CC(n4cnc(C(F)(F)F)n4)C3)C1)C2` [Example 158, [6-[[2-methyl-4-(trifluoromethyl)pyrazol-3-yl]methyl]-2,6-diazaspiro[3.3]heptan-2-yl]-[6-[3-(trifluoromethyl)-1,2,4-triazol-1-yl]-2-azaspiro[3.3]heptan-2-yl]methanone], the IC50 was 9.26 nM.

Regarding `CC(C)(C)c1ncc(CN2CC3(C2)CN(C(=O)N2CC4(CC(n5cnc(C6CC6)n5)C4)C2)C3)s1` [Example 57, [6-[(2-tert-butylthiazol-5-yl)methyl]-2,6-diazaspiro[3.3]heptan-2-yl]-[6-(3-cyclopropyl-1,2,4-triazol-1-yl)-2-azaspiro[3.3]heptan-2-yl]methanone], the IC50 came out at 5.1 nM. `O=C(N1CC2(CC(n3cnc(C(F)(F)F)n3)C2)C1)N1CC2(CN(Cc3nnn(CC(F)(F)F)n3)C2)C1` [Example 193, [6-[[2-(2,2,2-trifluoroethyl)tetrazol-5-yl]methyl]-2,6-diazaspiro[3.3]heptan-2-yl]-[6-[3-(trifluoromethyl)-1,2,4-triazol-1-yl]-2-azaspiro[3.3]heptan-2-yl]methanone] came in with a half-inhibitory concentration (IC50) of 730 nM. For `O=C(N1CC2(CC(c3cc(C4CC4)n[nH]3)C2)C1)N1CC2(CN(Cc3nc(C(F)(F)F)co3)C2)C1` [Example 215, [6-(3-cyclopropyl-1H-pyrazol-5-yl)-2-azaspiro[3.3]heptan-2-yl]-[6-[[4-(trifluoromethyl)oxazol-2-yl]methyl]-2,6-diazaspiro[3.3]heptan-2-yl]methanone], the half-maximal inhibitory concentration (IC50) is 20 nM. Take `O=C(N1CC2(CCC(Cc3nnc(C(F)(F)F)[nH]3)CC2)C1)N1CC2(CC(n3cnc(C4CC4)n3)C2)C1` [Example 36, [6-(3-cyclopropyl-1,2,4-triazol-1-yl)-2-azaspiro[3.3]heptan-2-yl]-[7-[[5-(trifluoromethyl)-4H-1,2,4-triazol-3-yl]methyl]-2-azaspiro[3.5]nonan-2-yl]methanone]: the IC50 is 302 nM.
